Earlier results, collected in US7294691B1, “Soluble secreted α2δ-2calcium channel subunit polypeptide” (Warner Lambert Company, priority 2000, dated 2007).

Test system: [^3H]gabapentin binding site
Details: saturation binding in the presence of L-leucine; reduces [^3H]gabapentin binding affinity

CC(C)C[C@H](N)C(=O)O [L-Leucine]
interaction with the [^3H]gabapentin binding site: competitive interaction
